Reference: US20230218548A1 (priority 2020, published 2023)
Like-named read-outs stand apart in the source and are kept apart here.

Columns and labels:
SARS-CoV-2 = experiment: microbe, parasite or virus in culture; assay type: cell-based, SARS-CoV-2 (USA-WA1/2020)
[1] = biological target: SARS-CoV-2 envelope (E) protein (Severe acute respiratory syndrome coronavirus 2, UniProt P0DTC4); assay type: cell-based
HeLa-ACE2 cells = assay type: cell-based; conditions: host cell toxicity, 24 h, read-out: HeLa-ACE2 EC50
Method: Compounds were prepared and plated in 384-well plates as for the infection assay. HeLa-ACE2 cells were seeded in the assay-ready plates at 1.6×10^3 cells/well in assay medium, and plates were incubated for 24 h at 37° C. with 5% CO2. To assess cell viability, the Image-IT DEAD green reagent (Thermo Fisher, 110291) was used according to manufacturer's instructions. Cells were fixed with 4% paraformaldehyde (PFA) and counterstained with DAPI. Fixed cells were imaged using the ImageXpress Micro Confocal High-Content Imaging System (Molecular Devices) with a 10x objective, and total live cells per well quantified in the acquired images using the Live Dead Application Module (MetaXpress).
The in vitro infection assay and the host cell cytotoxicity counterscreen data were uploaded to Genedata Screener, Version 16.0. Data were normalized to neutral (DMSO) […] inhibitor controls (2.5 μM remdesivir for antiviral effect, and 10 μM puromycin for infected host cell toxicity). For the uninfected host cell cytotoxicity counterscreen, 10 μM puromycin (Sigma) was used as a positive control. For dose-response experiments, compounds were tested in technical triplicates, and dose curves were fitted with the four parameter Hill Equation. Replicate data were analyzed using median condensing.

ACE2 = ACE2 (Homo sapiens, UniProt Q9BYF1); experiment: Mass spectrometry analysis of S-nitrosylated ACE2 protein; assay type: cell-based; conditions: after exposure to SNOC
Chain of ACE2 (Q9BYF1 18-805): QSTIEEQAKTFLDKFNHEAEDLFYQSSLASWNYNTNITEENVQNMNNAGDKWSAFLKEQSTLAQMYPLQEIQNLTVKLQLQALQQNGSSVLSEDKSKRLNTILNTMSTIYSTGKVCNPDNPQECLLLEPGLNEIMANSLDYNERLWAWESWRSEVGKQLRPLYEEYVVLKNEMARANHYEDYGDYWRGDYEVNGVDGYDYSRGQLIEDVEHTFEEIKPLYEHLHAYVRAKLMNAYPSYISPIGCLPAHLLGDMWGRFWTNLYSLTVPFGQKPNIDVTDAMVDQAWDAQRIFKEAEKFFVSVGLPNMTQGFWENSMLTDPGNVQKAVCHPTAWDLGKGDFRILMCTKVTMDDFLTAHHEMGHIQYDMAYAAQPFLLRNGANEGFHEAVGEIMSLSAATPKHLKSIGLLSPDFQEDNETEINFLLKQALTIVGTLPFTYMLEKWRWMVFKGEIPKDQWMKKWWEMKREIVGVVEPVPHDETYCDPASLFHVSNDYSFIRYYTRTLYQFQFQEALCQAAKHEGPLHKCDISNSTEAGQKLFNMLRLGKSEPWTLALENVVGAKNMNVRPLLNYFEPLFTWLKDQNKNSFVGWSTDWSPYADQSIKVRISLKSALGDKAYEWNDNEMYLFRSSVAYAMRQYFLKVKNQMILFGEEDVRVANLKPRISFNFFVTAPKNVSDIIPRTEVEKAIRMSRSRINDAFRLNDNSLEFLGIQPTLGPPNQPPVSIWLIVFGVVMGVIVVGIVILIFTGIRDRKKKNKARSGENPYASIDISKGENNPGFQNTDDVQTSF
Method: Biotin switch was performed as described above. […] The samples were desalted using a ZebaSpin desalting column (Thermo Scientific) pre-equilibrated with PBS, and biotinylated ACE2 protein was immunoprecipitated as described above. Immunoprecipitated ACE2 was eluted in 1% SDS solution and precipitated using methanol-chloroform. Dried pellets were dissolved in 8 M urea/100 mM triethylammonium bicarbonate (TEAB, pH 8.5). Samples were diluted to 2 M urea/100 mM TEAB, and proteins were trypsin digested overnight at 37° C. The digested ACE2 peptides were enriched a second time by biotin-avidin affinity to enrich biotinylated peptides representing the initial SNO sites. After avidin enrichment, peptides were eluted by reduction using tris(2-carboxyethyl)phosphine (TCEP).
Samples were analyzed on a Thermo Orbitrap Eclipse mass spectrometer (Thermo). Samples were injected directly onto a 25 cm, 100 μm ID column packed with ethylene bridged hybrid (BEH) 1.7 μm C18 resin (Waters). Samples were separated at a flow rate of 300 nl/min on a nLC 1200 (Thermo) using a gradient of solution A (0.1% formic acid in water, 5% acetonitrile) and solution B (80% acetonitrile/0.1% formic acid). Specifically, a gradient of 1-25% B over 100 min, an increase to 40% B over 20 min, an increase to 100% B over another 10 min and held at […] for a 10 min was used for a 140 min total run time. […]

[2] = Severe acute respiratory syndrome coronavirus 2, HeLa-ACE2, 24 h

Chain of SARS-CoV-2 envelope (E) protein (P0DTC4 whole entry, looked up): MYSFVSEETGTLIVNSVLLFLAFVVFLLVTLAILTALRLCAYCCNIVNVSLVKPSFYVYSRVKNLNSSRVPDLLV

Cc1cccc(/C=N/Nc2cc(N3CCOCC3)nc(OCCc3ccccn3)n2)c1 [Apilimod]
Selectivity Index CC50/EC50 (SARS-CoV-2): >332.11
EC50 (SARS-CoV-2; [2]): 0.0072 µM

CC12CC3CC(C)(C1)CC(N)(C3)C2 [NMT1, memantine]
Inhibition of E protein voltage-dependent K+ current [1]: inhibited in a dose-dependent manner
Selectivity Index CC50/EC50 (SARS-CoV-2): 2.69
EC50 (SARS-CoV-2; [2]): 53.9 µM

CCC12CC3CC(N)(C1)CC(CO[N+](=O)[O-])(C3)C2 (stereo not shown) [NMT2]
CC50 (host cell cytotoxicity) (HeLa-ACE2 cells): 122 µM
EC50 (SARS-CoV-2): 21.9 µM

NC12CC3CC(CC(C3)C1)C2 [NMT4, amantadine]
Selectivity Index CC50/EC50 (SARS-CoV-2): >2.86
EC50 (SARS-CoV-2; [2]): 70 µM

CC12CC3(C)CC(CCN)(C1)CC(CO[N+](=O)[O-])(C2)C3 [NMT6]
CC50 (host cell cytotoxicity) (HeLa-ACE2 cells): 10.5 µM
EC50 (SARS-CoV-2): 3.32 µM

NCC1(c2cccc(O[N+](=O)[O-])c2)C2CC3CC(C2)CC1C3 (stereo not shown) [NMT7]
CC50 (host cell cytotoxicity) (HeLa-ACE2 cells): > 200 µM
EC50 (SARS-CoV-2): 90.7 µM

CCC(O[N+](=O)[O-])C12CC3(C)CC(C)(CC(CCN)(C3)C1)C2 (stereo not shown) [NMT8]
CC50 (host cell cytotoxicity) (HeLa-ACE2 cells): 8.37 µM
EC50 (SARS-CoV-2): 3.75 µM

CC12CC3(C)CC(CN)(C1)CC(O[N+](=O)[O-])(C2)C3 [NMT9]
CC50 (host cell cytotoxicity) (HeLa-ACE2 cells): > 200 µM
EC50 (SARS-CoV-2): > 200 µM

COc1ccc(C[C@H](N)C(=O)N[C@H]2[C@@H](O)[C@H](n3cnc4c(N(C)C)ncnc43)O[C@@H]2CO)cc1 [Puromycin]
Selectivity Index CC50/EC50 (SARS-CoV-2): 0.728
EC50 (SARS-CoV-2; [2]): 0.617 µM

CCC(CC)COC(=O)[C@H](C)N[P@](=O)(OC[C@H]1O[C@@](C#N)(c2ccc3c(N)ncnn23)[C@H](O)[C@@H]1O)Oc1ccccc1 [Remdesivir]
Selectivity Index CC50/EC50 (SARS-CoV-2): >16.94
EC50 (SARS-CoV-2; [2]): 0.142 µM

N[C@@H](CSN=O)C(=O)O [SNOC]
S-nitrosylated ACE2 sites by mass spectrometry (ACE2): S-nitrosylated ACE2 at Cys^261 and Cys^496
